# From US12617756B2 (ABIVAX, priority 2019, dated 2026)
# System: RSV A2
# Assay: Screening for RSV inhibition using Viral ToxGlo assay (cytopathic effect inhibition in HEp-2 cells)
# Assay type: cell-based, Respiratory Syncytial Virus (RSV)
# Settings: human respiratory syncytial virus; RSV A2 in HEp-2 cells, MOI 0.5, 72h p.i., cytopathic effect inhibition relative to virus control, Viral ToxGlo luminescence
# Description: Protocol for Screening Antiviral Compounds for RSV Inhibition and Cytotoxicity Using Viral ToxGlo Assay
# HEp-2 cells were maintained in Eagle's minimum essential medium (EMEM) with Earle's BSS adjusted to contain 2 mM L-glutamine, 10% fetal bovine serum, 100 U/ml penicillin and 100 µg/ml streptomycin. For the purposes of the screening assay they were grown to 90% confluency, trypsinized and recovered. The trypsin was neutralised with cell culture media and cells were centrifuged at 150×g for 5 minutes before discarding the supernatant and resuspending cell pellet in assay media (EMEM with Earle's BSS adjusted to contain 2 mM L-glutamine, 2% fetal bovine serum and 100 U/ml penicillin and 100 µg/ml streptomycin). The cells were seeded into white clear-bottomed cell culture plates at a density of 1.5×10^4 cells/well in 50 μl and 4×10^3 cells/well in 25 μl for 96 well plates and 384 well plates respectively. For the media/background control column assay media only was added. Cell plates were placed in a humid chamber and incubated overnight at 37° C./5% CO2. After overnight incubation cells were checked for confluency and healthy appearance.
# Test articles were made up at 10× test concentration in a maximum DMSO concentration of 10% (final assay concentration maximal 1% DMSO) and added to the cell plates in volumes of […] for 96 well plates and 5 μl for 384 well plates. For cell control and virus control wells the test article solvent only was added. Virus or assay media for cytotoxicity test wells and media/cell control wells was added immediately after test articles at an MOI of […] for 96 and 384 well plates respectively. Virus suspension was prepared by thawing RSV A2 frozen stocks and diluting to the required concentration of plaque forming units in assay media on ice.
# Cell plates were further incubated inside a humid chamber for 72h p.i at 37° C./5% CO2. After the incubation period cells were observed under the microscope to check for characteristic cytopathic effect in virus control wells and healthy cells in the cell control wells. After plates were adjusted to room temperature 20/40 μl Viral ToxGlo (Promega) was added to each well of the 384/96 well cell plates. Plates were incubated at room temperature, protected from light on a plate rocker for 20 minutes before measuring the luminescence on a spectrophotometer (Biotek Synergy HTX).
row,Compound,EC50
1,CC(C)C1(NC(=O)c2cccc(Nc3ccc(C(=O)N=C4NCCN4)cc3C3CC3)c2)CC1 [Compound 7],1.6 nM
2,"CC1(NC(=O)c2cccc(Nc3ccc(C(=O)N=C4NCCN4)cc3C3CC3)c2)CC1 [Compound 14, 3-cyclopropyl-N-[(2Z)-imidazolidin-2-ylidene]-4-({3-[(1-methylcyclopropyl)carbamoyl]phenyl}amino)benzamide]",14.4 nM
3,"O=C(N=C1NCCN1)c1ccc(Nc2cccc(C(=O)N3CCOCC3)c2Cl)c(C2CCOC2)c1 (stereo not drawn) [Compound 15, 4-{[2-chloro-3-(morpholine-4-carbonyl)phenyl]amino}-N-[(2E)-imidazolidin-2-ylidene]-3-(oxolan-3-yl)benzamide]",14.9 nM
4,"O=C(N=C1NCCN1)c1ccc(Nc2cccc(C(=O)N3CCOCC3)c2Cl)c(C(F)(F)F)c1 [Compound 16, 4-{[2-chloro-3-(morpholine-4-carbonyl)phenyl]amino}-N-[(2E)-imidazolidin-2-ylidene]-3-(trifluoromethyl)benzamide]",15.6 nM
5,"CC(C)NC(=O)c1cccc(Nc2ccc(C(=O)/N=C3\NCCN3C)cc2C(C)(C)C)c1 [Compound 17, 3-tert-butyl-N-[(2E)-1-methylimidazolidin-2-ylidene]-4-({3-[(propan-2-yl)carbamoyl]phenyl}amino)benzamide]",19.8 nM
6,"CC1(NC(=O)c2cccc(Nc3ccc(C(=O)N=C4NCCN4)cc3C3CCC3)c2)CC1 [Compound 18, 3-cyclobutyl-N-[(2Z)-imidazolidin-2-ylidene]-4-({3-[(1-methylcyclopropyl)carbamoyl]phenyl}amino)benzamide]",21.2 nM
7,"CC(C)NC(=O)c1cccc(Nc2ccc(C(=O)N=C3NCCN3)cc2C(C)(C)C)c1 [Compound 19, 3-tert-butyl-N-[(2E)-imidazolidin-2-ylidene]-4-({3-[(propan-2-yl)carbamoyl]phenyl}amino)benzamide]",22.8 nM
8,"CC(C)(C)C(=O)Nc1cccc(Nc2ccc(C(=O)N=C3NCCN3)cc2C(C)(C)C)c1 [Compound 20, 3-tert-butyl-4-{[3-(2,2-dimethylpropanamido)phenyl]amino}-N-[(2Z)-imidazolidin-2-ylidene]benzamide]",23.5 nM
9,"CC1(C(=O)Nc2cccc(Nc3ccc(C(=O)N=C4NCCN4)cc3C3CC3)c2)CC1 [Compound 21, 3-cyclopropyl-N-[(2Z)-imidazolidin-2-ylidene]-4-{[3-(1-methylcyclopropaneamido)phenyl]amino}benzamide]",25.8 nM
10,"O=C(N=C1NCCN1)c1ccc(Nc2cccc(OCCCC3CCCCC3)c2)c(C2CC2)c1 [Compound 22, 4-{[3-(3-cyclohexylpropoxy)phenyl]amino}-3-cyclopropyl-N-[(2E)-imidazolidin-2-ylidene]benzamide]",26 nM
11,"O=C(N=C1NCCN1)c1ccc(Nc2cccc(OCC3COCCO3)c2Cl)c(C2CC2)c1 (stereo not drawn) [Compound 23, 4-({2-chloro-3-[(1,4-dioxan-2-yl)methoxy]phenyl}amino)-3-cyclopropyl-N-[(2E)-imidazolidin-2-ylidene]benzamide]",30.3 nM
12,"CN1CCN/C1=N\C(=O)c1ccc(Nc2cccc(C(=O)NC3(C)CC3)c2)c(C(C)(C)C)c1 [Compound 24, 3-tert-butyl-4-({3-[(1-methylcyclopropyl)carbamoyl]phenyl}amino)-N-[(2E)-1-methylimidazolidin-2-ylidene]benzamide]",31.7 nM
13,"O=C(N=C1NCCN1)c1ccc(Nc2cccc(C(=O)NC3CC3)c2Cl)c(C2CC2)c1 [Compound 25, 4-{[2-chloro-3-(cyclopropylcarbamoyl)phenyl]amino}-3-cyclopropyl-N-[(2Z)-imidazolidin-2-ylidene]benzamide]",32.2 nM
14,"CC(C)C(=O)Nc1cccc(Nc2ccc(C(=O)N=C3NCCN3)cc2C2CC2)c1 [Compound 26, 3-cyclopropyl-N-[(2E)-imidazolidin-2-ylidene]-4-{[3-(2-methylpropanamido)phenyl]amino}benzamide]",34.4 nM
15,"COc1c(Nc2ccc(C(=O)N=C3NCCN3)cc2C2CC2)cccc1C(=O)NCCC(C)C [Compound 27, 3-cyclopropyl-N-[(2Z)-imidazolidin-2-ylidene]-4-({2-methoxy-3-[(3-methylbutyl)carbamoyl]phenyl}amino)benzamide]",41.4 nM
16,"O=C(N=C1NCCN1)c1ccc(Nc2cccc(C(=O)NC3CCOC3)c2Cl)c(C2CC2)c1 (stereo not drawn) [Compound 28, 4-({2-chloro-3-[(oxolan-3-yl)carbamoyl]phenyl}amino)-3-cyclopropyl-N-[(2Z)-imidazolidin-2-ylidene]benzamide]",42.1 nM
17,"C=C(C)c1cc(C(=O)N=C2NCCN2)ccc1Nc1cccc(C(=O)NCCC(C)C)c1 [Compound 29, N-[(2E)-imidazolidin-2-ylidene]-4-({3-[(3-methylbutyl)carbamoyl]phenyl}amino)-3-(prop-1-en-2-yl)benzamide]",42.3 nM
18,"CC(C)(O)c1cc(C(=O)N=C2NCCN2)ccc1Nc1cccc(C(=O)N2CCOCC2)c1C(F)(F)F [Compound 30, 3-(2-hydroxypropan-2-yl)-N-[(2E)-imidazolidin-2-ylidene]-4-{[3-(morpholine-4-carbonyl)-2-(trifluoromethyl)phenyl]amino}benzamide]",42.7 nM
19,"CCC1(NC(=O)c2cccc(Nc3ccc(C(=O)N=C4NCCN4)cc3C3CC3)c2)CC1 [Compound 31, 3-cyclopropyl-4-({3-[(1-ethylcyclopropyl)carbamoyl]phenyl}amino)-N-[(2Z)-imidazolidin-2-ylidene]benzamide]",47.7 nM
20,"CC(C)NC(=O)c1cc(F)cc(Nc2ccc(C(=O)N=C3NCCN3)cc2C2CC2)c1 [Compound 32, 3-cyclopropyl-4-({3-fluoro-5-[(propan-2-yl)carbamoyl]phenyl}amino)-N-[(2Z)-imidazolidin-2-ylidene]benzamide]",49.2 nM
21,"CC(C)(C)c1cc(C(=O)N=C2NCCN2)ccc1Nc1cccc(C(=O)NCCC2CCCOC2)c1 (stereo not drawn) [Compound 33, 3-tert-butyl-N-[(2E)-imidazolidin-2-ylidene]-4-[(3-{[2-(oxan-3-yl)ethyl]carbamoyl}phenyl)amino]benzamide]",50.2 nM
22,"CC(C)NC(=S)c1cccc(Nc2ccc(C(=O)N=C3NCCN3)cc2C2CC2)c1 [Compound 34, 3-cyclopropyl-N-[(2Z)-imidazolidin-2-ylidene]-4-({3-[(propan-2-yl)carbamothioyl]phenyl}amino)benzamide]",50.4 nM
23,"CC(C)(C)c1cc(C(=O)N=C2NCCN2)ccc1Nc1cccc(C(=O)NCCC2CCCCO2)c1 (stereo not drawn) [Compound 35, 3-tert-butyl-N-[(2E)-imidazolidin-2-ylidene]-4-[(3-{[2-(oxan-2-yl)ethyl]carbamoyl}phenyl)amino]benzamide]",51.6 nM
24,"CC(C)NC(=O)c1cccc(Nc2ccc(C(=O)/N=C3\NCCN3C)cc2C2CC2)c1 [Compound 36, 3-cyclopropyl-N-[(2E)-1-methylimidazolidin-2-ylidene]-4-({3-[(propan-2-yl)carbamoyl]phenyl}amino)benzamide]",55.4 nM
25,"CC(C)C(=O)Nc1cccc(Nc2ccc(C(=O)N=C3NCCN3)cc2C(C)(C)C)c1 [Compound 37, 3-tert-butyl-N-[(2E)-imidazolidin-2-ylidene]-4-{[3-(2-methylpropanamido)phenyl]amino}benzamide]",55.5 nM
26,"CC(C)N(C)C(=O)c1cccc(Nc2ccc(C(=O)N=C3NCCN3)cc2C(C)(C)C)c1 [Compound 38, 3-tert-butyl-N-[(2E)-imidazolidin-2-ylidene]-4-({3-[methyl(propan-2-yl)carbamoyl]phenyl}amino)benzamide]",63.7 nM
27,"CC(C)(C)c1cc(C(=O)N=C2NCCN2)ccc1Nc1cccc(C(=O)NCCC2CCOCC2)c1 [Compound 39, 3-tert-butyl-N-[(2E)-imidazolidin-2-ylidene]-4-[(3-{[2-(oxan-4-yl)ethyl]carbamoyl}phenyl)amino]benzamide]",66.2 nM
28,"Cc1c(C(=O)NCCC(C)C)ccnc1Nc1ccc(C(=O)N=C2NCCN2)cc1C1CC1 [Compound 40, 2-[(2-cyclopropyl-4-{[(2E)-imidazolidin-2-ylidene]carbamoyl}phenyl)amino]-3-methyl-N-(3-methylbutyl)pyridine-4-carboxamide]",69.2 nM
29,"O=C1CN/C(=N\C(=O)c2ccc(Nc3cccc(OCCCC4CCCCC4)c3)c(C3CC3)c2)N1 [Compound 41, 4-{[3-(3-cyclohexylpropoxy)phenyl]amino}-3-cyclopropyl-N-[(2E)-4-oxoimidazolidin-2-ylidene]benzamide]",77.2 nM
30,"O=C(N=C1NCCN1)c1ccc(Nc2cccc(C(=O)N3CCOCC3)c2C2CC2)c(C(F)(F)F)c1 [Compound 42, 4-{[2-cyclopropyl-3-(morpholine-4-carbonyl)phenyl]amino}-N-[(2Z)-imidazolidin-2-ylidene]-3-(trifluoromethyl)benzamide]",78.4 nM
